Measured values reported in patent US8765721B2, “Composition comprising phosphatidyl serine and an antigen or allergen and the use thereof” (Vaccine Technology Limited, priority 2004, dated 2014).

How the values were obtained:
Format in all cases: in vivo, rat
IgA [1] = test: Ovalbumin-specific IgA ELISA of serum of immunised rats; conditions: pooled group serum
IgA [2] = test: as above; conditions: Day 1; 50 ug with 20 μg Ova s.c. on days 21 and 42; pooled group serum
IgG2a = test: Ovalbumin-specific IgG2a ELISA of serum of immunised rats; conditions: pooled group serum
IgG2b = test: Ovalbumin-specific IgG2b ELISA of serum of immunised rats; conditions: pooled group serum
IgE [3] = test: Ovalbumin-specific IgE ELISA of serum of immunised rats; conditions: pooled group serum
IgG1 = test: Ovalbumin-specific IgG1 ELISA of serum of immunised rats; conditions: pooled group serum
IgE [4] = test: Ovalbumin-specific IgE ELISA of serum of immunised rats; conditions: Day 1; 250 ug with 20 μg Ova s.c. on days 21 and 42; pooled group serum
[5] = Day 1, 250 ug with 20 μg Ova s.c. on days 21 and 42
[6] = Day 15, 50 ug with 20 μg Ova s.c. on days 21 and 42
[7] = Day 15, 250 ug with 20 μg Ova s.c. on days 21 and 42
[8] = Day 22, 50 ug with 20 μg Ova s.c. on days 21 and 42
[9] = Day 22, 250 ug with 20 μg Ova s.c. on days 21 and 42
[10] = Day 29, 50 ug with 20 μg Ova s.c. on days 21 and 42
[11] = Day 29, 250 ug with 20 μg Ova s.c. on days 21 and 42
[12] = Day 36, 50 ug with 20 μg Ova s.c. on days 21 and 42
[13] = Day 36, 250 ug with 20 μg Ova s.c. on days 21 and 42
[14] = Day 43, 50 ug with 20 μg Ova s.c. on days 21 and 42
[15] = Day 43, 250 ug with 20 μg Ova s.c. on days 21 and 42
[16] = Day 50, 50 ug with 20 μg Ova s.c. on days 21 and 42
[17] = Day 50, 250 ug with 20 μg Ova s.c. on days 21 and 42
[18] = Day 57, 50 ug with 20 μg Ova s.c. on days 21 and 42
[19] = Day 57, 250 ug with 20 μg Ova s.c. on days 21 and 42
[20] = Day 64, 50 ug with 20 μg Ova s.c. on days 21 and 42
[21] = Day 64, 250 ug with 20 μg Ova s.c. on days 21 and 42
[22] = Day 1, 50 ug with 20 μg Ova s.c. on days 21 and 42

## CCCCCCCC/C=C\CCCCCCCC(=O)OC[C@H](COP(=O)(O)OC[C@H](N)C(=O)O)OC(=O)CCCCCCC/C=C\CCCCCCCC [VT001, Dioleoyl phosphatidyl serine]
IgA [1]; [5]
  IgA endpoint titer: 0
IgA [1]; [6]
  IgA endpoint titer: 0
IgA [1]; [7]
  IgA endpoint titer: 0
IgA [1]; [8]
  IgA endpoint titer: 0
IgA [1]; [9]
  IgA endpoint titer: 0
IgA [1]; [10]
  IgA endpoint titer: 320
IgA [1]; [11]
  IgA endpoint titer: 320
IgA [1]; [12]
  IgA endpoint titer: 640
IgA [1]; [13]
  IgA endpoint titer: 640
IgA [1]; [14]
  IgA endpoint titer: 320
IgA [1]; [15]
  IgA endpoint titer: 640
IgA [1]; [16]
  IgA endpoint titer: 1280
IgA [1]; [17]
  IgA endpoint titer: 1280
IgA [1]; [18]
  IgA endpoint titer: 1280
IgA [1]; [19]
  IgA endpoint titer: 1280
IgA [1]; [20]
  IgA endpoint titer: 640
IgA [1]; [21]
  IgA endpoint titer: 640
IgA [2]
  IgA endpoint titer: 0
IgG2a; [22]
  IgG2a endpoint titer: 0
IgG2a; [5]
  IgG2a endpoint titer: 0
IgG2a; [6]
  IgG2a endpoint titer: 40
IgG2a; [7]
  IgG2a endpoint titer: 640
IgG2a; [8]
  IgG2a endpoint titer: 2560
IgG2a; [9]
  IgG2a endpoint titer: 1280
IgG2a; [10]
  IgG2a endpoint titer: 5120
IgG2a; [11]
  IgG2a endpoint titer: 2560
IgG2a; [12]
  IgG2a endpoint titer: 10240
IgG2a; [13]
  IgG2a endpoint titer: 5120
IgG2a; [14]
  IgG2a endpoint titer: 10240
IgG2a; [15]
  IgG2a endpoint titer: 10240
IgG2a; [16]
  IgG2a endpoint titer: 40960
IgG2a; [17]
  IgG2a endpoint titer: 40960
IgG2a; [18]
  IgG2a endpoint titer: 40960
IgG2a; [19]
  IgG2a endpoint titer: 40960
IgG2a; [20]
  IgG2a endpoint titer: 20480
IgG2a; [21]
  IgG2a endpoint titer: 20480
IgG2b; [22]
  IgG2b endpoint titer: 0
IgG2b; [5]
  IgG2b endpoint titer: 0
IgG2b; [6]
  IgG2b endpoint titer: 160
IgG2b; [7]
  IgG2b endpoint titer: 320
IgG2b; [8]
  IgG2b endpoint titer: 320
IgG2b; [9]
  IgG2b endpoint titer: 640
IgG2b; [10]
  IgG2b endpoint titer: 160
IgG2b; [11]
  IgG2b endpoint titer: 640
IgG2b; [12]
  IgG2b endpoint titer: 160
IgG2b; [13]
  IgG2b endpoint titer: 2560
IgG2b; [14]
  IgG2b endpoint titer: 160
IgG2b; [15]
  IgG2b endpoint titer: 1280
IgG2b; [16]
  IgG2b endpoint titer: 2560
IgG2b; [17]
  IgG2b endpoint titer: 1280
IgG2b; [18]
  IgG2b endpoint titer: 5120
IgG2b; [19]
  IgG2b endpoint titer: 5120
IgG2b; [20]
  IgG2b endpoint titer: 5120
IgG2b; [21]
  IgG2b endpoint titer: 5120
IgE [3]; [22]
  IgE endpoint titer: 0
IgE [3]; [6]
  IgE endpoint titer: 0
IgE [3]; [7]
  IgE endpoint titer: 0
IgE [3]; [8]
  IgE endpoint titer: 0
IgE [3]; [9]
  IgE endpoint titer: 0
IgE [3]; [10]
  IgE endpoint titer: 0
IgE [3]; [11]
  IgE endpoint titer: 40
IgE [3]; [12]
  IgE endpoint titer: 40
IgE [3]; [13]
  IgE endpoint titer: 40
IgE [3]; [14]
  IgE endpoint titer: 0
IgE [3]; [15]
  IgE endpoint titer: 80
IgE [3]; [16]
  IgE endpoint titer: 1280
IgE [3]; [17]
  IgE endpoint titer: 1280
IgE [3]; [18]
  IgE endpoint titer: 160
IgE [3]; [19]
  IgE endpoint titer: 160
IgE [3]; [20]
  IgE endpoint titer: 0
IgE [3]; [21]
  IgE endpoint titer: 40
IgG1; [22]
  IgG1 endpoint titer: 0
IgG1; [5]
  IgG1 endpoint titer: 0
IgG1; [6]
  IgG1 endpoint titer: 160
IgG1; [7]
  IgG1 endpoint titer: 160
IgG1; [8]
  IgG1 endpoint titer: 2560
IgG1; [9]
  IgG1 endpoint titer: 2560
IgG1; [10]
  IgG1 endpoint titer: 40960
IgG1; [11]
  IgG1 endpoint titer: 20480
IgG1; [12]
  IgG1 endpoint titer: 20480
IgG1; [13]
  IgG1 endpoint titer: 40960
IgG1; [14]
  IgG1 endpoint titer: 10240
IgG1; [15]
  IgG1 endpoint titer: 10240
IgG1; [16]
  IgG1 endpoint titer: 20480
IgG1; [17]
  IgG1 endpoint titer: 10240
IgG1; [18]
  IgG1 endpoint titer: 40960
IgG1; [19]
  IgG1 endpoint titer: 40960
IgG1; [20]
  IgG1 endpoint titer: 20480
IgG1; [21]
  IgG1 endpoint titer: 20480
IgE [4]
  IgE endpoint titer: 0
